Test results published in US20260274814A1, “THIENYL COMPOUNDS FOR THE TREATMENT OF A CENTRAL NERVOUS SYSTEM DISEASE OR DISORDER” (Coreterra Therapeutics, Inc., priority 2023, published 2026).
Structures can show the parent of a compound that is named as a salt.

System: mice
Experiment: Neuropharmacological Assay (SmartCube): automated behavioral signature of compound-treated mice compared with a database of reference drug classes
Format: in vivo
Details: for AG / AP / AX / CE / HL / MS / SH / UK / AD / AN / PS: SmartCube class probability, 3.0 mg/kg i.p., 15 min before test; for MED / minimal effective dose: minimal effective dose: dose having 45% or more total activity in SmartCube, i.p., if only one dose tested, that dose is shown; for minimal effective dose: Mus musculus, ip, read-out: MED
How it was run: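 Mice dosed i.p. 15 min before SmartCube testing, with compound in N-methyl-2-pyrrolidone/polyethylene glycol/propylene glycol. Video-captured behaviour is compared with a reference-drug signature database to give per-class probabilities, reported at 3.0 mg/kg. MED, from doses usually 0.3–10 mg/kg, is the lowest dose giving ≥45% total activity.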

SMILES | AG | AP | AX | CE | HL | MS | SH | UK | AD (hydrochloride, 3 mg/kg) | AN (hydrochloride, 3 mg/kg) | PS (hydrochloride, 3 mg/kg) | MED (hydrochloride) | minimal effective dose | AD | AN | PS | AP (hydrochloride, 3 mg/kg) | UK (hydrochloride, 3 mg/kg) | other results
CNC1(C)CCc2sccc2C1 (single isomer, unassigned) [Compound 178, N, 5-dimethyl-6,7-dihydro-4H-benzothiophen-5-amine hydrochloride] | ND (^ <4%) | ND (^ <4%) | ND (^ <4%) | ND (^ <4%) | ND (^ <4%) | ND (^ <4%) | ND (^ <4%) | ND (^ <4%) | + (≥4%) | ND (^ <4%) | ++++ (≥74%) | 1 mpk |  |  |  |  |  |  | 
CNC1(C)CCc2sccc2C1 (single isomer, unassigned) [Compound 179, N, 5-dimethyl-6,7-dihydro-4H-benzothiophen-5-amine hydrochloride] | ND (^ <4%) | ND (^ <4%) | ND (^ <4%) | ND (^ <4%) | ND (^ <4%) | ND (^ <4%) | ND (^ <4%) | ND (^ <4%) | +++ (≥49%) | + (≥4%) | + (≥4%) | 3 mpk |  |  |  |  |  |  | 
CNC1CCc2sc(C3CC3)cc2C1 (single isomer, unassigned) [Compound 183, 2-cyclopropyl-N-methyl-4,5,6,7-tetrahydrobenzothiophen-5-amine hydrochloride] | ND (^ <4%) | ND (^ <4%) | ND (^ <4%) | ND (^ <4%) | ND (^ <4%) | ND (^ <4%) | ND (^ <4%) | ++ (≥24%) |  |  |  |  | 3 mg/kg | ND (^ <4%) | ND (^ <4%) | ND (^ <4%) |  |  | 
CNC1CCc2sc(C3CC3)cc2C1 (single isomer, unassigned) [Compound 184, 2-cyclopropyl-N-methyl-4,5,6,7-tetrahydrobenzothiophen-5-amine hydrochloride] | ND (^ <4%) | ND (^ <4%) | ND (^ <4%) | ND (^ <4%) | ND (^ <4%) | ND (^ <4%) | ND (^ <4%) | ++ (≥24%) |  |  |  | >3 mpk |  | ND (^ <4%) | ND (^ <4%) | ND (^ <4%) |  |  | 
NC1CCc2scc(F)c2C1 (single isomer, unassigned) [Compound 191, 3-fluoro-4,5,6,7-tetrahydrobenzothiophen-5-amine hydrochloride] |  |  | ND (^ <4%) |  | ND (^ <4%) | ND (^ <4%) | ND (^ <4%) |  | ++ (≥24%) | + (≥4%) | + (≥4%) | 1 mpk |  |  |  |  | + (≥4%) | ND (^ <4%) | AG (hydrochloride, 3 mg/kg): + (≥4%); CE (hydrochloride, 3 mg/kg): + (≥4%)
NC1CCc2scc(F)c2C1 (single isomer, unassigned) [Compound 192, 3-fluoro-4,5,6,7-tetrahydrobenzothiophen-5-amine hydrochloride] |  |  | ND (^ <4%) |  | ND (^ <4%) | ND (^ <4%) | ND (^ <4%) |  | ND (^ <4%) | ND (^ <4%) | ND (^ <4%) | 3 mpk |  |  |  |  | ND (^ <4%) | +++ (≥49%) | AG (hydrochloride, 3 mg/kg): ND (^ <4%); CE (hydrochloride, 3 mg/kg): ND (^ <4%)
CNC1CCc2scc(C(F)(F)F)c2C1.Cl (single isomer, unassigned) [Compound 194, N-methyl-3-(trifluoromethyl)-4,5,6,7-tetrahydrobenzothiophen-5-amine hydrochloride] | ND (^ <4%) |  | ND (^ <4%) | ND (^ <4%) | ND (^ <4%) | ND (^ <4%) | ND (^ <4%) |  |  |  |  |  | 3 mg/kg | ND (^ <4%) | ND (^ <4%) | ND (^ <4%) | ++++ (≥74%) | ND (^ <4%) | 
CNC1CCc2scc(C(F)(F)F)c2C1.Cl (single isomer, unassigned) [Compound 195, N-methyl-3-(trifluoromethyl)-4,5,6,7-tetrahydrobenzothiophen-5-amine hydrochloride] | ND (^ <4%) |  | ND (^ <4%) | ND (^ <4%) | ND (^ <4%) | ND (^ <4%) | ND (^ <4%) |  |  |  |  | >3 mpk |  | ND (^ <4%) | ND (^ <4%) | ND (^ <4%) | ND (^ <4%) | + (≥4%) | 
CNC1CCc2c(Cl)csc2C1 (single isomer, unassigned) [Compound 198, 3-chloro-N-methyl-4,5,6,7-tetrahydrobenzothiophen-6-amine hydrochloride] | ND (^ <4%) |  | ND (^ <4%) | ND (^ <4%) |  | ND (^ <4%) | ND (^ <4%) | ND (^ <4%) |  |  |  |  | < 3 mg/kg | ND (^ <4%) | ND (^ <4%) | ND (^ <4%) | ++++ (≥74%) |  | HL (hydrochloride, 3 mg/kg): ND (^ <4%)
CNC1CCc2c(Cl)csc2C1 (single isomer, unassigned) [Compound 199, 3-chloro-N-methyl-4,5,6,7-tetrahydrobenzothiophen-6-amine hydrochloride] | ND (^ <4%) |  | ND (^ <4%) | ND (^ <4%) |  | ND (^ <4%) | ND (^ <4%) | ND (^ <4%) |  |  |  |  |  | ND (^ <4%) | ND (^ <4%) | ND (^ <4%) | ND (^ <4%) |  | HL (hydrochloride, 3 mg/kg): + (≥4%); MED: <3 mpk
CNC1CCc2c(F)sc(C)c2C1 (single isomer, unassigned) [Compound 210, 1-fluoro-N, 3-dimethyl-4,5,6,7-tetrahydro-2-benzothiophen-5-amine hydrochloride] | ND (^ <4%) |  | ND (^ <4%) | ND (^ <4%) | ND (^ <4%) | ND (^ <4%) | ND (^ <4%) |  |  |  |  |  | 3 mg/kg | ND (^ <4%) | ND (^ <4%) | ND (^ <4%) | + (≥4%) | +++ (≥49%) | 
CNC1CCc2c(F)sc(C)c2C1 (single isomer, unassigned) [Compound 211, 1-fluoro-N, 3-dimethyl-4,5,6,7-tetrahydro-2-benzothiophen-5-amine hydrochloride] | ND (^ <4%) |  | ND (^ <4%) | ND (^ <4%) | ND (^ <4%) | ND (^ <4%) | ND (^ <4%) |  |  |  |  | <3 mpk |  | ND (^ <4%) | ND (^ <4%) | ND (^ <4%) | ++++ (≥74%) | ND (^ <4%) | 
